In ChEMBL document CHEMBL4609985, “Superior inhibition of influenza virus hemagglutinin-mediated fusion by indole-substituted spirothiazolidinones” (Bioorg Med Chem, 2020):
pEC50: −log10 of the molar value.

Legend:
[1] = Inhibition of Influenza A virus H3N2 A/X-31 hemagglutinin 3 E572K mutant expressed in HeLa cells assessed as polykaryon formation preincubated for 15 mins and further incubated for 15 mins with acidic buffer containing compounds at pH 5.2 by giemsa staining based microscopic analysis; assay type: cell-based, Influenza A virus (A/X-31(H3N2))
[2] = Inhibition of Influenza A virus H3N2 A/X-31 hemagglutinin 3 D1122N expressed in HeLa cells assessed as polykaryon formation preincubated for 15 mins and further incubated for 15 mins with acidic buffer containing compounds at pH 5.6 by giemsa staining based microscopic analysis; assay type: cell-based, Influenza A virus (A/X-31(H3N2))

SMILES	pEC50 [1]	pEC50 [2]
Cc1nc2sccn2c1C(=O)NN1C(=O)C(C)SC12CCC(C)CC2 (centres undefined)	5.05	< 4.60
Cc1c(C(=O)NN2C(=O)C(C)SC23CCC(C)CC3)[nH]c2ccc(Cl)cc12 (centres undefined)	≤ 4.89	< 4.60
Cc1c(C(=O)NN2C(=O)C(C)SC23CCCC(C)C3)[nH]c2ccc(Cl)cc12 (centres undefined)	< 4.60	< 4.60
CCC1CCC2(CC1)SC(C)C(=O)N2NC(=O)c1[nH]c2ccc(Cl)cc2c1C (centres undefined)	< 4.60	≤ 4.68
Cc1c(C(=O)NN2C(=O)C(C)SC23CCCCC3)[nH]c2ccc(Cl)cc12 (centres undefined)	< 4.60	< 4.60
CC(C)(C)c1cc(O)ccc1O [E319]	4.92	< 3.40
CCOC(=O)c1c(CSc2ccccc2)n(C)c2cc(Br)c(O)c(CN(C)C)c12 [UMIFENOVIR]	< 3.70	< 3.70
